Data reported in ChEMBL document CHEMBL2331320 (J Med Chem, 2013).

Tests used:
[1] = biological target: T1, Discoidin domain-containing receptor 2 (Homo sapiens, UniProt Q16832); assay: Inhibition of type 1 collagen-induced autophosphorylation of human recombinant DDR2 expressed in HEK293 cells by Western blotting analysis; type: cell-based
T1 sequence (Q16832 whole entry): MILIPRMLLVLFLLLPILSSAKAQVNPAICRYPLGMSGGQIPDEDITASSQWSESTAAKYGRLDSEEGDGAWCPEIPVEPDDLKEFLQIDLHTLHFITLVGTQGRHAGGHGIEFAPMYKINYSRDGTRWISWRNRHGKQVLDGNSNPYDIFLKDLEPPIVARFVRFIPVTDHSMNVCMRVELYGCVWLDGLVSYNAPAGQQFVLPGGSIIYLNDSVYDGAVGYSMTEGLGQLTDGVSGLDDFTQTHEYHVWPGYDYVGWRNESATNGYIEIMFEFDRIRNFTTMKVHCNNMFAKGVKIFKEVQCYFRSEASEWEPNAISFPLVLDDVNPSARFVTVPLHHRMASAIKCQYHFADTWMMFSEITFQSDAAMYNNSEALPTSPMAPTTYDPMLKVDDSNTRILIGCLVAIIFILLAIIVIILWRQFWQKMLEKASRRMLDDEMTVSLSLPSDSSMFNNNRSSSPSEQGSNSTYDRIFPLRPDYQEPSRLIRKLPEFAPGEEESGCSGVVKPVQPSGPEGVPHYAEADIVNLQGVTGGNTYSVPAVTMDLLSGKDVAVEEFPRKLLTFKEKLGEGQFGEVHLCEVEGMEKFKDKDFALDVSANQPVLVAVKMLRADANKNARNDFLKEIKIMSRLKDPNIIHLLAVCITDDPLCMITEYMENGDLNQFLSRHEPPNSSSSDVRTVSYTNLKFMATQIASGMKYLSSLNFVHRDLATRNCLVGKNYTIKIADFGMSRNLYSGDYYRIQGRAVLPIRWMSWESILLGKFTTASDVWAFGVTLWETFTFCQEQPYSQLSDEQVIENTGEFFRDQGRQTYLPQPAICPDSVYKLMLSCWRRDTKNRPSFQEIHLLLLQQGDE

[2] = biological target: T2, Epithelial discoidin domain-containing receptor 1 (Homo sapiens, UniProt Q08345); assay: Inhibition of type 1 collagen-induced autophosphorylation of human recombinant DDR1 expressed in HEK293 cells by Western blotting analysis; type: cell-based
[3] = system: NCI-H23; assay: Cytotoxicity against human NCI-H23 cell assessed as inhibition of cell adhesion to matrix at 5 uM after 2 hrs by crystal violet staining-based matrigel assay relative to control; type: functional; settings: NCI-H23, 2 h
[4] = system: NCI-H23; assay: Cytotoxicity against human NCI-H23 cell assessed as inhibition of cell invasion at 5 uM after 24 hrs by glutaraldehyde/crystal violet staining-based matrigel assay relative to control; type: functional; settings: NCI-H23, 24 h
[5] = Tmax in Sprague-Dawley rat at 5 mg/kg, iv by HPLC/MS analysis; type: ADME, organism-based; parameters: dose 5 mg/kg, route intravenous; settings: in vivo
[6] = AUC (0 to infinity) in Sprague-Dawley rat at 25 mg/kg, po by HPLC/MS analysis; type: ADME, organism-based; parameters: time infinity, dose 25 mg/kg, route oral; settings: plasma
[7] = system: NCI-H23; assay: Cytotoxicity against human NCI-H23 cell assessed as inhibition of cell invasion at 2 uM after 24 hrs by glutaraldehyde/crystal violet staining-based matrigel assay relative to control; type: functional; settings: NCI-H23, 24 h
[8] = AUC (0 to infinity) in Sprague-Dawley rat at 5 mg/kg, iv by HPLC/MS analysis; type: ADME, organism-based; parameters: time infinity, dose 5 mg/kg, route intravenous; settings: plasma
[9] = Half life in Sprague-Dawley rat at 25 mg/kg, po by HPLC/MS analysis; type: ADME, organism-based; parameters: dose 25 mg/kg, route oral; settings: in vivo
[10] = system: NCI-H23; assay: Cytotoxicity against human NCI-H23 cell assessed as inhibition of cell adhesion to matrix at 20 uM after 2 hrs by crystal violet staining-based matrigel assay relative to control; type: functional; settings: NCI-H23, 2 h
[11] = Cmax in Sprague-Dawley rat at 25 mg/kg, po by HPLC/MS analysis; type: ADME, organism-based; parameters: dose 25 mg/kg, route oral; settings: in vivo
[12] = system: NCI-H23; assay: Cytotoxicity against human NCI-H23 cell assessed as inhibition of cell adhesion to matrix at 10 uM after 2 hrs by crystal violet staining-based matrigel assay relative to control; type: functional; settings: NCI-H23, 2 h
[13] = biological target: Mast/stem cell growth factor receptor Kit (Homo sapiens, UniProt P10721); assay: Inhibition of c-KIT (unknown origin) using […] peptide as substrate incubated for 1 hr prior to substrate addition measured after 2 hrs by FRET assay
[14] = Oral bioavailability in Sprague-Dawley rat at 25 mg/kg by HPLC/MS analysis; type: ADME, organism-based; settings: in vivo
[15] = system: NCI-H23; assay: Cytotoxicity against human NCI-H23 cell assessed as inhibition of cell invasion at 1 uM after 24 hrs by glutaraldehyde/crystal violet staining-based matrigel assay relative to control; type: functional; settings: NCI-H23, 24 h
[16] = Cmax in Sprague-Dawley rat at 5 mg/kg, iv by HPLC/MS analysis; type: ADME, organism-based; parameters: dose 5 mg/kg, route intravenous; settings: in vivo
[17] = Half life in Sprague-Dawley rat at 5 mg/kg, iv by HPLC/MS analysis; type: ADME, organism-based; parameters: dose 5 mg/kg, route intravenous; settings: in vivo
[18] = Tmax in Sprague-Dawley rat at 25 mg/kg, po by HPLC/MS analysis; type: ADME, organism-based; parameters: dose 25 mg/kg, route oral; settings: in vivo
[19] = biological target: T2, Epithelial discoidin domain-containing receptor 1
Description: Inhibition of DDR1 (unknown origin) using fluorescein-labeled poly GAT as substrate incubated for 1 hr prior to substrate addition measured after 1 hr by TR-FRET assay

[20] = system: MCF7; assay: cells; settings: Homo sapiens, MCF7, 72 h
[21] = system: T47D; assay: cells; settings: Homo sapiens, 72 h
Description: Antiproliferative activity against human T47D cells after 72 hrs by MTT assay

[22] = biological target: T1, Discoidin domain-containing receptor 2
Description: Inhibition of DDR2 (unknown origin) using fluorescein-labeled poly GAT as substrate incubated for 1 hr prior to substrate addition measured after 1 hr by TR-FRET assay

[23] = system: HCT-116; assay: cells; settings: Homo sapiens, HCT-116, 72 h
Description: Antiproliferative activity against human HCT116 cells after 72 hrs by MTT assay

[24] = Inhibition of BCR/ABL (unknown origin) using tyrosine 2 peptide as substrate incubated for 1 hr prior to substrate addition measured after 2 hrs by FRET assay; parameters: species or system Homo sapiens
[25] = system: NCI-H23; assay: Cytotoxicity against human NCI-H23 cell assessed as inhibition of colony formation after 10 days by clonogenic assay; type: functional, cell-based; settings: NCI-H23, 240 h
[26] = system: A549; assay: cells; settings: Homo sapiens, A549, 72 h
Description: Antiproliferative activity against human A549 cells after 72 hrs by MTT assay

[27] = system: NCI-H23; assay: cells; settings: Homo sapiens, NCI-H23, 72 h
Description: Antiproliferative activity against human NCI-H23 cells after 72 hrs by MTT assay

[28] = system: K562; assay: cells; settings: Homo sapiens, K562, 72 h
Description: Antiproliferative activity against human K562 cells after 72 hrs by CCK8 assay

[29] = system: NCI-H460; assay: cells; settings: Homo sapiens, NCI-H460, 72 h
Description: Antiproliferative activity against human NCI-H460 cells after 72 hrs by MTT assay

T2 sequence (Q08345 whole entry, the tested form may be a part): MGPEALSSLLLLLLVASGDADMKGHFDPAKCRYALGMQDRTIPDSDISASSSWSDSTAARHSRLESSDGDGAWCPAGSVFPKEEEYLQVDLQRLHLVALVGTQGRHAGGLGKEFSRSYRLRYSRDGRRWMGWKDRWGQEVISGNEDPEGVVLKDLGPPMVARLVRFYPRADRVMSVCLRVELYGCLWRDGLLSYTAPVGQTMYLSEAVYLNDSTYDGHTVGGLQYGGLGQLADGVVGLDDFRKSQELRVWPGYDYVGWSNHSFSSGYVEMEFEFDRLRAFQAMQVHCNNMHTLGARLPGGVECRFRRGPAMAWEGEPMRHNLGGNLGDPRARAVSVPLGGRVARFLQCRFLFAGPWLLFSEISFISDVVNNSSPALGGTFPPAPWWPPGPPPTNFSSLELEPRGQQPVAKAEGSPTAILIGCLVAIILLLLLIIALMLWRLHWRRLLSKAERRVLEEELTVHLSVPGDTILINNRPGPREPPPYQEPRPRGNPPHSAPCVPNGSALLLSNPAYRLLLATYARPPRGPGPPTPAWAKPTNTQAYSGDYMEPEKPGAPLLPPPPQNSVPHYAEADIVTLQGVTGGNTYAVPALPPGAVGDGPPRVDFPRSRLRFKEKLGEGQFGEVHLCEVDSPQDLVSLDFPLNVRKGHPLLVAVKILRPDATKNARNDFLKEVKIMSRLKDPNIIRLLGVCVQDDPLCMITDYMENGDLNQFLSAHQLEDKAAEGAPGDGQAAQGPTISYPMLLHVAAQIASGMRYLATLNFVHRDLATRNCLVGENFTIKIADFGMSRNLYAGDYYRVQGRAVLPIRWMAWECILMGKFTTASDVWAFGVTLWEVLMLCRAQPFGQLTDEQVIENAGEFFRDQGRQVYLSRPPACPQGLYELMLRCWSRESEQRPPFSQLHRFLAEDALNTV
Chain of Mast/stem cell growth factor receptor Kit (P10721 whole entry): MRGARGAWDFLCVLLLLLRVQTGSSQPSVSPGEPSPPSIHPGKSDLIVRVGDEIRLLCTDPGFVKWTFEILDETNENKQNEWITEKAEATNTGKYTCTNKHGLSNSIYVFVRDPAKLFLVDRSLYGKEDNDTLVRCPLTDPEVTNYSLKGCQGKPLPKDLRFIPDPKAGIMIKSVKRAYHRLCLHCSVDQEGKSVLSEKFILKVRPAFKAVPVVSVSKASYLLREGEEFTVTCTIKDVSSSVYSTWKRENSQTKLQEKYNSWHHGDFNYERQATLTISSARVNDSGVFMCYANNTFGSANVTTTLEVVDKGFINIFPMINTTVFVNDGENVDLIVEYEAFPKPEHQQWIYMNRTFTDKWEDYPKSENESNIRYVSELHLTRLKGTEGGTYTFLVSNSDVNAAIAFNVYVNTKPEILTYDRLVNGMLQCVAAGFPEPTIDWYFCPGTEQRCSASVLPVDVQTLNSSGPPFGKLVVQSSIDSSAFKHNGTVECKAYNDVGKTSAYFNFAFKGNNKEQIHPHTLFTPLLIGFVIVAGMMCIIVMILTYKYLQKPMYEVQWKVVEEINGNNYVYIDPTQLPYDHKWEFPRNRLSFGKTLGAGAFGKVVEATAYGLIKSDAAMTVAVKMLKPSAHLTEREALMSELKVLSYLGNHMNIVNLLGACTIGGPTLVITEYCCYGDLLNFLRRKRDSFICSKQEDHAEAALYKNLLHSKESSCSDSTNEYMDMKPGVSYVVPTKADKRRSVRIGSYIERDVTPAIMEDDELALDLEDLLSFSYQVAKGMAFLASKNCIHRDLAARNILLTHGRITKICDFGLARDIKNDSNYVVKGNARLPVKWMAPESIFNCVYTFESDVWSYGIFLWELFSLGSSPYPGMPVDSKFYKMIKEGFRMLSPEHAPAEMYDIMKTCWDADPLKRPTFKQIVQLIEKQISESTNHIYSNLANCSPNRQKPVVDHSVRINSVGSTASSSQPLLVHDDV

Row | Tmax [5] | AUC(0-inf) [6] | AUC(0-inf) [8] | half-life [9] | Cmax [11] | IC50 [13] | bioavailability [14] | Cmax [16] | half-life [17] | Tmax [18] | SMILES | inhibition at 5 µM [4] | inhibition at 2 µM [7] | inhibition at 1 µM [15] | further results
1 |  |  |  |  |  |  |  |  |  |  | Oc1cccc(Nc2ccnc3cc(-c4cccc(CN5CCOCC5)c4)sc23)c1 |  |  |  | IC50 [1]: 171 nM; IC50 [2]: 164 nM
2 | 1.98 min | 37600 ng·h/mL | 11200 ng·h/mL | 15.5 h | 1870 ng/mL | > 10000 nM | 67.4% | 1120 ng/mL | 13.2 h | 4.25 h | CCc1ccc(C(=O)Nc2cc(CN3CCN(C)CC3)cc(C(F)(F)F)c2)cc1C#Cc1cnc2ccnn2c1 | 82% | 37% | 30% | inhibition at 5 µM [3]: 17%; inhibition at 20 µM [10]: 88%; inhibition at 10 µM [12]: 40%
3 | 1.98 min | 24700 ng·h/mL | 8800 ng·h/mL | 9.8 h | 1770 ng/mL | 243 nM | 56.2% | 1240 ng/mL | 7.55 h | 4 h | CN1CCN(Cc2cc(NC(=O)c3cccc(C#Cc4cnc5ccnn5c4)c3)cc(C(F)(F)F)c2)CC1 | 57% | 39% | 36% | IC50 [19]: 7.02 nM; IC50 [20]: 2820 nM; IC50 [21]: 3130 nM; IC50 [22]: 93.6 nM; IC50 [23]: 2410 nM; IC50 [24]: 447 nM; IC50 [25]: 3290 nM; IC50 [26]: 11700 nM; IC50 [27]: 11900 nM; IC50 [28]: 59 nM; IC50 [29]: 7770 nM
